24 molecules from patent publication US9920059B2, “Heterocyclic compounds as pesticides” (BAYER CROPSCIENCE AKTIENGESELLSCHAFT, priority 2014, dated 2018) can be followed below.

Where two headings read alike, the source gives them in different places.

The subject of series [1] is green peach aphid (Myzus persicae). Kind of series: Myzus persicae spray test (MYZUPE), bell pepper plants. The note with it: after 6 days. The series is classed as in vivo. How it is done:
Myzus Persicae—Spray Test (MYZUPE) • Solvent: 7 parts by weight of dimethylformamide • Emulsifier: alkylaryl polyglycol ether To produce an appropriate active ingredient preparation, 1 part by weight of active ingredient is dissolved using the specified parts by weight of solvent and made up with water containing an emulsifier concentration of 1000 ppm until the desired concentration is attained. To produce further test concentrations, the preparation is diluted with emulsifier-containing water. If the addition of ammonium salts or/and penetrants is required, these are each added in a concentration of 1000 ppm to the preparation solution. Bell pepper plants (Capsicum annuum) severely infested with the green peach aphid (Myzus persicae) are treated by spraying with the active ingredient preparation in the desired concentration. After 6 days, the kill in % is determined. 100% means that all the aphids have been killed; 0% means that no aphids have been killed.

A short description of series [2]: log P by HPLC on reversed-phase C18 columns, OECD Guideline 117. Conditions: for chromatographic logP: reversed-phase C18 HPLC column; for logP [a]: pH 2.7; for logP [b]: pH 7.8. The series is classed as physicochemical. The protocol:
The log P values were determined in accordance with OECD Guideline 117 (EC Directive 92/69/EEC) by HPLC (high-performance liquid chromatography) using reversed-phase (RP) columns (C18), by the following methods: [a] The LC-MS determination in the acidic range is effected at pH 2.7 with 0.1% aqueous formic acid and acetonitrile (contains 0.1% formic acid) as eluents; linear gradient from 10% acetonitrile to 95% acetonitrile. [b] LC-MS determination in the neutral range is effected at pH 7.8 with 0.001 molar aqueous ammonium hydrogencarbonate solution and acetonitrile as eluents; linear gradient from 10% acetonitrile to 95% acetonitrile. Calibration is effected with unbranched alkan-2-ones (having 3 to 16 carbon atoms) with known log P values (log P values determined on the basis of the retention times by linear interpolation between two successive alkanones).

In series [3] the test system is green peach aphid (Myzus persicae). Kind of series: Myzus persicae spray test (MYZUPE), Chinese cabbage leaf discs. The series is classed as in vivo. The note with it: after 6 days. How it is done:
Myzus persicae—Spray Test (MYZUPE)
• Solvent: 78 parts by weight of acetone • 1.5 parts by weight of dimethylformamide • Emulsifier: alkylaryl polyglycol ether
(§1) To produce an appropriate active ingredient preparation, 1 part by weight of active ingredient is dissolved using the specified parts by weight of solvent and made up with water containing an emulsifier concentration of 1000 ppm until the desired concentration is attained. To produce further test concentrations, the preparation is diluted with emulsifier-containing water.
Discs of Chinese cabbage leaves (Brassica pekinensis) infested with all stages of the green peach aphid (Myzus persicae) are sprayed with an active ingredient preparation of the desired concentration.
After 6 days, the efficacy in % is determined. 100% means that all the aphids have been killed; 0% means that none of the aphids have been killed.

Series [4] relates to adult houseflies (Musca domestica). Kind of series: Musca domestica test (MUSCDO). The class given is in vivo. Conditions: application rate 100 ppm, after 2 days. How it is done: Musca domestica Test (MUSCDO) • Solvent: dimethyl sulphoxide To prepare an appropriate active ingredient preparation, 10 mg of active ingredient are mixed with 0.5 ml of dimethyl sulphoxide, and the concentrate is diluted with water to the desired concentration. Vessels containing a sponge treated with sugar solution and the active ingredient preparation of the desired concentration are populated with 10 adult houseflies (Musca domestica). After 2 days, the kill in % is determined. 100% means that all of the flies have been killed; 0% means that none of the flies have been killed.

Series [5] has as its system greenhouse red spider mite (Tetranychus urticae). Kind of series: Tetranychus urticae spray test, OP-resistant (TETRUR), bean leaf discs. Conditions: application rate 500 g/ha, after 6 days. The series is classed as in vivo. The protocol:
Tetranychus urticae—Spray Test, OP-Resistant (TETRUR)
• Solvent: 78.0 parts by weight of acetone • 1.5 parts by weight of dimethylformamide • Emulsifier: alkylaryl polyglycol ether
as §1
Discs of bean leaves (Phaseolus vulgaris) infested with all stages of the greenhouse red spider mite (Tetranychus urticae) are sprayed with an active compound preparation of the desired concentration.
After 6 days, the efficacy in % is determined. 100% means that all the spider mites have been killed; 0% means that none of the spider mites have been killed.

The mark [6] stands for this setting: acidic range, pH 2.7, 0.1% aqueous formic acid/acetonitrile, read-out: log P[a].
The mark [7] stands for this setting: neutral range, pH 7.8, ammonium hydrogencarbonate/acetonitrile, read-out: log P[b].
[8] abbreviates: acidic range, NMR peak list table.
The mark [9] stands for this setting: neutral range, NMR peak list table.

Take `Cc1cc(F)c(-n2cnc3nn(-c4cccnc4)cc3c2=O)cc1SCC(F)(F)F` [I-1-1, 5-{2-Fluoro-4-methyl-5-[(2,2,2-trifluoroethyl)sulphanyl]phenyl}-2-(pyridin-3-yl)-2,5-dihydro-4H-pyrazolo[3,4-d]pyrimidin-4-one]: in series [1] (application rate 20 ppm), the “efficacy (kill in %)” value worked out at 100%. Besides, the values for the chromatographic logP in series [2] (setting [6]) and in series [2] (setting [7]) were 2.65 and 2.63, respectively.
In the case of `Cc1cc(F)c(-n2nnc3nn(-c4cccnc4)cc3c2=O)cc1[S+]([O-])CC(F)(F)F` (stereo not drawn) [I-1-2, 3-[2-Fluoro-4-methyl-5-(2,2,2-trifluoroethylsulphinyl)phenyl]-6-(3-pyridyl)pyrazolo[3,4-d]triazin-4-one], the chromatographic logP in series [2] (setting [6]) came to 2.22; in series [2] (setting [7]) it was 2.19. The molecule also returned an efficacy in % in series [3] (application rate 500 g/ha) of 100%. Further, in series [4], the “efficacy (kill in %)” value is 80%.
On the same counts, the results for `Cc1cc(F)c(-n2nnc3nn(-c4cccnc4)cc3c2=O)cc1SCC(F)(F)F` [I-1-3, 3-[2-fluoro-4-methyl-5-(2,2,2-trifluoroethylsulphanyl)phenyl]-6-(3-pyridyl)pyrazolo[3,4-d]triazin-4-one] are 3.18, 3.14, 100% and 80%.
For the molecule `Cc1cc(F)c(-n2cnc3nn(-c4cccnc4)cc3c2=O)cc1[S+]([O-])CC(F)(F)F` (stereo not drawn) [I-1-4, 5-{2-Fluoro-4-methyl-5-[(2,2,2-trifluoroethyl)sulphinyl]phenyl}-2-(pyridin-3-yl)-2,5-dihydro-4H-pyrazolo[3,4-d]pyrimidin-4-one], the efficacy in % in series [5] and in series [3] (application rate 500 g/ha) was 100% in each case. For the same molecule, the results for the chromatographic logP in series [2] (setting [6]) and in series [2] (setting [7]) were 1.79 and 1.78, respectively.
Regarding `Cc1cc(F)c(-n2cnc3nn(-c4ccc[n+]([O-])c4)cc3c2=O)cc1[S+]([O-])CC(F)(F)F` (stereo not drawn) [I-1-5, 5-{2-Fluoro-4-methyl-5-[(2,2,2-trifluoroethyl)sulphinyl]phenyl}-2-(1-oxidopyridin-1-ium-3-yl)pyrazolo[3,4-d]pyrimidin-4-one], the chromatographic logP turned out to be 1.39 in series [2] (setting [6]) and 1.33 in series [2] (setting [7]). Also, the efficacy in % in series [3] (application rate 500 g/ha) is reported as 100%.
Regarding `CSc1cccc(-n2cnc3nn(-c4cccnc4)cc3c2=O)c1` [I-1-6], the “logP [a]” value in series [2] (acidic range, Table 2) was found to be 1.82. In series [2] (neutral range, Table 2), the “logP [b]” value came out at 1.78. Further, the efficacy in % in series [3] (application rate 500 g/ha) amounted to 90%.
On the same counts, the results for `Cc1ccc(-n2cnc3nn(-c4cccnc4)cc3c2=O)cc1SCC(F)(F)F` [I-1-7] are 2.51, 2.56 and 90%.
The corresponding values for `Cc1ccc(-n2cnc3nn(-c4cccnc4)cc3c2=O)cc1[S+]([O-])CC(F)(F)F` (stereo not drawn) [I-1-8] are 1.65, 1.67 and 90%.
Take `O=c1c2cn(-c3cccnc3)nc2ncn1-c1cc(SCC(F)(F)F)ccc1F` [I-1-9]: in series [2] (acidic range, Table 2), the “logP [a]” value is given as 2.32. The “logP [b]” value in series [2] (neutral range, Table 2) amounted to 2.35. Further, the efficacy in % in series [3] (application rate 100 g/ha) was found to be 90%.
With `O=c1c2cn(-c3cccnc3)nc2ncn1-c1cc([S+]([O-])CC(F)(F)F)ccc1F` (stereo not drawn) [I-1-10], the “logP [a]” value in series [2] (acidic range, Table 2) is given as 1.53. Also, the “logP [b]” value in series [2] (neutral range, Table 2) is 1.55. In series [3] (application rate 500 g/ha), this molecule came in with an efficacy in % of 100%.
For `O=c1c2cn(-c3cccnc3)nc2ncn1-c1cccc(SCC2CC2)c1` [I-1-11], the “logP [a]” value in series [2] (setting [8]) was determined as 2.50. In addition, in series [2] (setting [9]), the “logP [b]” value is 2.41. The molecule further gave an efficacy in % in series [3] (application rate 500 g/ha) of 100%.
The corresponding values for `O=c1c2cn(-c3cccnc3)nc2ncn1-c1cccc(SCC(F)(F)F)c1` [I-1-12] are 2.25, 2.18 and 90%.
Regarding `O=c1c2cn(-c3cccnc3)nc2ncn1-c1cc(SCC(F)(F)F)c(Cl)cc1F` [I-1-13], in series [1] (application rate 4 ppm), the “efficacy (kill in %)” value is on record as 100%. Also, the “logP [a]” value in series [2] (setting [8]) was determined as 2.70. Moreover, in series [2] (setting [9]), the “logP [b]” value turned out to be 2.65.
For the molecule `O=c1c2cn(-c3cccnc3)nc2ncn1-c1cc(SCC(F)(F)F)c(Cl)cc1Cl` [I-1-14], the “logP [a]” value in series [2] (setting [8]) was 2.91. Also, the “logP [b]” value in series [2] (setting [9]) was determined as 2.83. For the same molecule, the efficacy in % in series [3] (application rate 500 g/ha) was found to be 90%.
On the same counts, the results for `O=c1c2cn(-c3ccc[n+]([O-])c3)nc2ncn1-c1cc([S+]([O-])CC(F)(F)F)c(Cl)cc1Cl` (stereo not drawn) [I-1-15] are 1.66, 1.67 and 90%.
On the same counts, the results for `O=c1c2cn(-c3cccnc3)nc2ncn1-c1cccc([S+]([O-])CC(F)(F)F)c1` (stereo not drawn) [I-1-16] are 1.46, 1.41 and 90%.
On the same counts, the results for `Cc1cc(C)c(-n2cnc3nn(-c4cccnc4)cc3c2=O)cc1SCC(F)(F)F` [I-1-17] are 2.75, 2.72 and 90%.
Take `O=c1c2cn(-c3cccnc3)nc2ncn1-c1cc([S+]([O-])CC(F)(F)F)c(Cl)cc1F` (stereo not drawn) [I-1-18]: the “logP [a]” value in series [2] (setting [8]) is listed as 2.02. In addition, in series [2] (setting [9]), the “logP [b]” value was found to be 1.94. The efficacy in % in series [3] (application rate 500 g/ha) came to 90%.
With `O=c1c2cn(-c3cccnc3)nc2ncn1-c1cc([S+]([O-])CC(F)(F)F)c(Cl)cc1Cl` (stereo not drawn) [I-1-19], the “logP [a]” value in series [2] (setting [8]) is recorded as 2.17. Further, the “logP [b]” value in series [2] (setting [9]) turned out to be 2.09. The molecule also displayed an efficacy in % in series [3] (application rate 500 g/ha) of 90%.
`Cc1cc(C)c([S+]([O-])CC(F)(F)F)cc1-n1cnc2nn(-c3cccnc3)cc2c1=O` (stereo not drawn) [I-1-20]: the efficacy in % in series [5] and in series [3] (application rate 20 g/ha) was 90% in each case. In addition, the “logP [a]” value in series [2] (setting [8]) is 1.84. For the same molecule, in series [2] (setting [9]), the “logP [b]” value turned out to be 1.79.
With `O=c1c2cn(-c3cccnc3)nc2ncn1-c1cccc([S+]([O-])CC2CC2)c1` (stereo not drawn) [I-1-21], the “logP [a]” value in series [2] (setting [8]) amounted to 1.27. Also, the “logP [b]” value in series [2] (setting [9]) stood at 1.32. This molecule returned an efficacy in % in series [3] (application rate 500 g/ha) of 90%.
The corresponding values for `Cc1cc(F)c(-n2c(C)nc3nn(-c4cccnc4)cc3c2=O)cc1SCC(F)(F)F` [I-1-22] are 2.74, 2.69 and 90%.
On the same counts, the results for `CSc1ccccc1-n1cnc2nn(-c3cccnc3)cc2c1=O` [I-2-23] are 1.65, 1.67 and 90%.
Take `Cc1cc(F)c(NC(=O)c2cn(-c3cccnc3)nc2N)cc1SCC(F)(F)F` [II-1, 3-Amino-N-{2-fluoro-4-methyl-5-[(2,2,2-trifluoroethyl)sulphanyl]phenyl}-1-(pyridin-3-yl)-1H-pyrazole-4-carboxamide]: the chromatographic logP in series [2] (setting [6]) came out at 2.72; in series [2] (setting [7]) it was 2.63.
